Measured values from PubChem BioAssay (NCI).
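Cells were grown in 96-well plates and exposed to each compound for 48 hours at five concentrations; endpoints were interpolated linearly between bracketing concentrations, or set to the highest concentration if not reached. GI50 is the concentration that inhibits growth by half. TGI marks complete inhibition of growth.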

How the values were obtained:
Assay in all cases: NCI tumour cell line growth inhibition, 48 h
SK-MEL-5 melanoma = test system: SK-MEL-5 melanoma
SF-268 CNS = test system: SF-268 CNS
U251 CNS = test system: U251 CNS
NCI/ADR-RES ovarian = test system: NCI/ADR-RES ovarian
SR leukemia = test system: SR leukemia
UACC-257 melanoma = test system: UACC-257 melanoma
HCT-116 colon = test system: HCT-116 colon
HT29 colon = test system: HT29 colon
RXF 393 renal = test system: RXF 393 renal
NCI-H226 lung = test system: NCI-H226 lung

SMILES	GI50 (SK-MEL-5 melanoma) [µM]	TGI (SK-MEL-5 melanoma) [µM]	GI50 (SF-268 CNS) [µM]	TGI (SF-268 CNS) [µM]	GI50 (U251 CNS) [µM]	TGI (U251 CNS) [µM]	GI50 (NCI/ADR-RES ovarian) [µM]	TGI (NCI/ADR-RES ovarian) [µM]	GI50 (SR leukemia) [µM]	TGI (SR leukemia) [µM]	GI50 (UACC-257 melanoma) [µM]	TGI (UACC-257 melanoma) [µM]	GI50 (HCT-116 colon) [µM]	TGI (HCT-116 colon) [µM]	TGI (HT29 colon) [µM]	TGI (RXF 393 renal) [µM]	TGI (NCI-H226 lung) [µM]	GI50 (HT29 colon) [µM]	GI50 (RXF 393 renal) [µM]	GI50 (NCI-H226 lung) [µM]
CCSc1nc(N)c(C#N)c(-c2ccc(OC)c(OC)c2)c1C#N	8.36	29.5	11.1	35.1	17.6	> 50	21.9	> 50	11.8	37.6	9.13	> 50	16.4	47.5						
Cn1c(=O)c2[nH]c(CCS)nc2n(C)c1=O		> 100		> 100		> 100		> 100		> 100		> 100		> 100	> 100	> 100	> 100			
COc1cc2c3c(n(CCCN=[N+]=[N-])c(=O)c2cc1OC)-c1ccc(NC(C)=O)cc1C3=O	11.2	> 50	> 50	> 50	> 50	> 50	> 50	> 50	4.85	> 50	> 50	> 50	> 50	> 50	> 50	> 50	> 50	> 50	> 50	> 50
Cn1c(=S)c2[nH]c(SCc3cccnc3)nc2n(C)c1=O		> 100		> 100		> 100		> 100		> 100		> 100		> 100	> 100	> 100	> 100			
CCN1Cc2c(/C=C/c3ccccc3)nc3ccc(OC)cc3c2N(c2cccc(Cl)c2)C1	1.59	3	1.87	3.67	1.71	3.3	2.1	5.22	1.71	5.53	1.75	4.22	1.67	3.8	3.03	3.69	3.5	1.45	2.07	1.65
COc1ccc(C#CC2=C(Br)C(=O)OC2)cc1	7.58	14.3	16.9	> 50	1.75	6.48	12	33.6	2.63	> 50	11.9	26.4	1.4	35.7	10.5	17.4	34.6	2.42	7.06	13.3
CCC1C[N+]2=C(c3cc(OC)c(OC)cc3CC2)c2c1cc1n2CCc2cc(OC)c(OC)cc2-1 (centres undefined)	1.26	2.61	3.49	31.8	2.25	14.5	64.3	> 100	3.1	> 100			2.89	13.1	20.3	15.5	21.2	3.23	3.46	7.49
Cc1nc2sc(C(=O)Nc3cccc(Cl)c3C)c(N)c2cc1C(O)c1ccccc1 (centres undefined)	0.0528	1.11	0.318	11.7	0.039	13.8	0.0318	1.64	0.021	16.6	1.27	22.9	0.0404	10.9	8.35		22.8	0.0355		1.19
CN1CCC(n2cnc(-c3ccc(F)cc3)c2-c2ccnc(Nc3ccccc3)n2)CC1	4.14	9.43	9.91	> 25	6.7	> 25	7.65	> 25			4.22	9.25	7.27	> 25	> 25	> 25	> 25	3.95	10.5	18.3
O=CCC(O)C(O)C(O)CO (centres undefined)	> 100	> 100	> 100	> 100	> 100	> 100	> 100	> 100	> 100	> 100	55.6	> 100	> 100	> 100	> 100		> 100	> 100		> 100
O=C1c2ccccc2-c2c1c1ccc3ccccc3c1n2-c1ccccc1	16.5	50.1	20	52.3	18.9	35.7	20.7	58.5	41.9	> 100	64.8	> 100			> 100	52.1	75.2	> 100	18.9	27.9
C=CC(=O)N1CCC(CNc2ncnc(N)c2-c2ccc(Oc3ccccc3)cc2)CC1	14.3	27.6	26.6	> 100	25.7	> 100	24.6	79.4			38.5	> 100	30.1	> 100	> 100	85.2	85.1	30.7	22.4	19.5
CCCCCC/C=C\CCCCCCCCCc1cccc(OC)c1O		> 100		> 100		> 100		> 100				> 100		> 100	> 100	> 100	> 100			
Clc1ccc2c(NCCNc3nc(N4CCCCC4)nc4ccccc34)ccnc2c1	1.86	3.31	2.39	7.33	2.08	5.15	3.5	> 100	1.23	4.53	1.94	3.77	0.441	1.63	4.1	3.72	4.05	1.58	1.81	1.92
COC(=O)[C@]12CC[C@@H](C)[C@H](C)[C@@H]1C1=CC[C@@H]3[C@@]4(C)C(C=O)=C[C@@](C)(COC(=O)c5ccco5)C4=CC[C@@]3(C)[C@]1(C)CC2	0.189	1.17	2.93	9.92	2.06	10.8	4.84	26.1	2.12	6.66	0.108	0.65	2.2	6.47	9.47	3.77	7.79	2.98	1.7	2.33
CCCCc1n(Cc2ccc3ccccc3n2)cc[n+]1Cc1ccc2ccccc2c1	0.559	1.33	0.984	2.92	0.661	2.06	24.2	> 100	0.456	1.95	0.438	1.62	0.639	2.11	2.85	3.16	6.12	0.592	1.22	1
COc1ccccc1N1CCN(CC(O)Cn2c(=O)c3c(OC)nc(C)cc3c(=O)n2-c2ccccc2)CC1 (centres undefined)	46.2	> 100	62.1	> 100	31.6	> 100	87.9	> 100	> 100	> 100			67.3	> 100	> 100		> 100	> 100		> 100
Fc1cccc(-c2nc(-c3c[nH]c4ncccc34)cs2)c1	> 100	> 100	38.2	> 100	25	> 100	> 100	> 100	> 100	> 100	> 100	> 100	7.9	> 100	> 100	90.8	> 100	> 100	23.1	> 100
CCN(CC)CCOc1ccccc1-n1c(C)ccc1-c1ccccc1	12.8	25.9	15.6	30.6	13.4	27.4	13.9	29.9			16.2	31.8	12	25.8	20.8	20.1		6.22	5.31	
NCCNc1nc2ccc(F)cc2c2c(=O)c3cc(F)ccc3sc12	1.68	3.25	1.62	4.47	1.76	3.24	1.7	3.33	1.98	4.91	2.69	7.8	1.61	2.96	3.06	7.32		1.61	2.33	
CCN1C(=O)N[C@H]2[C@@H]3NC(=O)c4ccc(Cl)n4[C@@H]3C[C@]21O	0.228	0.711	0.502	52.3	0.329	13.5	12	89.8	0.257	0.983			0.397	8.32	10.4	2.69	5.7	0.968	0.333	0.543
COc1ncc(-c2ccc3ncnc(Nc4cccc(Cl)c4)c3c2)cc1NS(C)(=O)=O	1.37	3.22	1.99	19.2	4.11	31.6	2.38	29.1	3.91	> 100			2.33	10.9	13.1	4.79	24.2	1.07	1.42	4.83
Nc1ncc(-c2ccc3ncnc(N4CCc5cc(F)c(Cl)cc54)c3c2)cc1C(F)(F)F			1.24	> 100	3.5	> 100	2.05	> 100	1.67	> 100	2.08	> 100	2.08	> 100	> 100	1.53		1.97	0.274	
N#Cc1cc2c(=S)[nH]c(=S)[nH]c2nc1SCc1ccccc1	20.7	52.3	30.6	> 100	29.5	> 100	28.1	> 100	41.3	> 100	47.4	> 100	29.8	> 100		> 100	94.3		31.8	24.4
Nc1n[nH]c2cc(F)c([C@@H]3Nc4c(F)cc5[nH]ncc5c4[C@H]4C5CCC(C5)[C@@H]34)cc12 (some centres undefined)	0.114	0.538	0.306	4.49	0.127	5.7	0.14	5.67	0.115	11.1	5.16	23.3	0.118	1.56	5.39		1.41	0.119		0.141
COc1ccccc1C(=O)Nc1ccc(Cl)c(C(=O)OC(C)C)c1		> 54.8		> 95.2		> 100		64.4				> 77.1		> 95	88.2	> 100	> 100			
COc1ccc(OC)c(-c2nc3sc(C)cn3c2/C=C2\C(=O)N(C)c3ccccc32)c1	14	27.3	19.7	63.6	22.2	59.5	15.7	54.7	1.89	18.5	29.5	82.6	18.6	37.1	70		> 100	21.9		29.8
COc1ccccc1CNC(=O)/C=C/c1ccc(O)c(O)c1	56.8	> 100	90.7	> 100	42	> 100	66	> 100			84.6	> 100	52.6	> 100	> 100	> 100	> 100	50.5	54.9	51.8
